# Columns and labels:
# Details in all cases: incubation time: 72 h
# MDA-MB-231 [1] = assay: drug sensitivity score (DSS), CellTox Green (DSS (AUC-based score)); higher = stronger drug effect (viability inhibition or cytotoxicity); extreme values may be limits of the assay
# Summary of the method: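 Breast cancer cell lines, seeded as 20 µl suspension, were incubated 72 h with compound in 384-well plates at 5 concentrations in 10-fold steps over a 10,000-fold range set for each compound. Fluorescence from CellTox Green was read at 485/520 nm before CellTiter-Glo luminescence, which was read after 10 min at room temperature. Every plate was normalised to 0.1 % DMSO and a positive kill control, and the drug sensitivity score was taken from the area under the fitted dose-response curve.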
# HCC1143 [2] = assay: drug sensitivity score (DSS), CellTiter-Blue viability (DSS (AUC-based score)); higher = stronger viability inhibition; extreme values may be limits of the assay
# Summary of the method: (§1)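 Breast cancer cell lines in 20 µl suspension were seeded into 384-well plates already holding compound in a 5- or 9-concentration series and incubated for 72 h. CellTiter-Blue reagent (2.5 µl per well) was then added for 2 h at 37 °C, and fluorescence was read at 560/590 nm. Values on each plate were normalised to 0.1 % DMSO and a positive kill control. The drug sensitivity score is the area under the fitted dose-response curve.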
# SK-BR-3 [3] = assay: as above
# Summary of the method: as §1
# MDA-MB-468 [4] = assay: as above
# Summary of the method: as §1
# Hs578T = assay: normalised viability (% of control), CellTiter-Blue; higher = more viable cells (about 100 = DMSO control)
# Summary of the method: (§2)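 The reported quantity is normalised viability at a single listed concentration of the series. Compound in 5 µl medium was pre-dispensed into 384-well plates and 20 µl of breast cancer cell suspension was added for 72 h. A 2 h, 37 °C CellTiter-Blue step (2.5 µl) preceded fluorescence reading at 560/590 nm, and plates were normalised to vehicle (100) and a positive kill control (0).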
# HCC1599 = assay: as above
# Summary of the method: as §2
# MDA-MB-231 [5] = assay: as above
# Summary of the method: as §2
# MDA-MB-436 = assay: as above
# Summary of the method: as §2
# BT-549 = assay: as above
# Summary of the method: as §2
# HCC1143 [6] = assay: as above
# Summary of the method: as §2
# CAL-85-1 = assay: as above
# Summary of the method: as §2
# MDA-MB-453 = assay: as above
# Summary of the method: as §2
# HCC1937 = assay: as above
# Summary of the method: as §2
# CAL-120 = assay: as above
# Summary of the method: as §2
# SK-BR-3 [7] = assay: as above
# Summary of the method: as §2
# CAL-148 = assay: as above
# Summary of the method: as §2
# MFM-223 = assay: as above
# Summary of the method: as §2
# HDQ-P1 = assay: as above
# Summary of the method: as §2
# CAL-51 = assay: as above
# Summary of the method: as §2
# MDA-MB-468 [8] = assay: as above
# Summary of the method: as §2
# DU-4475 = assay: as above
# Summary of the method: as §2
# BT-474 = assay: as above
# Summary of the method: as §2
smiles,measurement,setting,value
COc1cc(O)c2c(c1)/C=C/C[C@H](O)[C@H](O)C(=O)/C=C\C[C@H](C)OC2=O [(5Z)-7-Oxozeaenol],drug sensitivity score,MDA-MB-231 [1],9.09
CNC(=O)c1cccc(-c2ccc3c(N4CCOC[C@@H]4C)nc(N4CCOC[C@@H]4C)nc3n2)c1 [AZD2014],drug sensitivity score,MDA-MB-231 [1],0
COC(=O)c1ccc2c(c1)NC(=O)/C2=C(\Nc1ccc(N(C)C(=O)CN2CCN(C)CC2)cc1)c1ccccc1 [BIBF 1120],drug sensitivity score,HCC1143 [2],0
same,drug sensitivity score,SK-BR-3 [3],2.7
same,drug sensitivity score,MDA-MB-468 [4],2.89
same,normalised viability,Hs578T; 10 nM,102%
same,normalised viability,Hs578T; 1000 nM,111%
same,normalised viability,Hs578T; 10000 nM,34%
same,normalised viability,HCC1599; 10 nM,90.9%
same,normalised viability,HCC1599; 1000 nM,95.9%
same,normalised viability,HCC1599; 10000 nM,65.1%
same,normalised viability,MDA-MB-231 [5]; 10 nM,97.6%
same,normalised viability,MDA-MB-231 [5]; 1000 nM,120%
same,normalised viability,MDA-MB-231 [5]; 10000 nM,2.46%
same,normalised viability,MDA-MB-436; 10 nM,120%
same,normalised viability,MDA-MB-436; 1000 nM,122%
same,normalised viability,MDA-MB-436; 10000 nM,43.8%
same,normalised viability,BT-549; 10 nM,105%
same,normalised viability,BT-549; 1000 nM,111%
same,normalised viability,BT-549; 10000 nM,16.4%
same,normalised viability,HCC1143 [6]; 10 nM,91%
same,normalised viability,HCC1143 [6]; 1000 nM,103%
same,normalised viability,HCC1143 [6]; 10000 nM,56.7%
same,normalised viability,CAL-85-1; 3 nM,97.1%
same,normalised viability,CAL-85-1; 30 nM,98.3%
same,normalised viability,CAL-85-1; 100 nM,99.6%
same,normalised viability,MDA-MB-453; 3 nM,112%
same,normalised viability,MDA-MB-453; 30 nM,101%
same,normalised viability,MDA-MB-453; 100 nM,104%
same,normalised viability,HCC1937; 10 nM,144%
same,normalised viability,HCC1937; 1000 nM,130%
same,normalised viability,HCC1937; 10000 nM,84%
same,normalised viability,CAL-120; 10 nM,82.6%
same,normalised viability,CAL-120; 1000 nM,75.5%
same,normalised viability,CAL-120; 10000 nM,29.7%
same,normalised viability,SK-BR-3 [7]; 10 nM,101%
same,normalised viability,SK-BR-3 [7]; 1000 nM,91.8%
same,normalised viability,SK-BR-3 [7]; 10000 nM,42.8%
same,normalised viability,CAL-148; 3 nM,93.5%
same,normalised viability,CAL-148; 30 nM,99%
same,normalised viability,CAL-148; 100 nM,97.7%
same,normalised viability,MFM-223; 10 nM,99.5%
same,normalised viability,MFM-223; 1000 nM,57%
same,normalised viability,MFM-223; 10000 nM,36.6%
same,normalised viability,HDQ-P1; 3 nM,124%
same,normalised viability,HDQ-P1; 30 nM,117%
same,normalised viability,HDQ-P1; 100 nM,124%
same,normalised viability,CAL-51; 3 nM,104%
same,normalised viability,CAL-51; 30 nM,96.3%
same,normalised viability,CAL-51; 100 nM,100%
same,normalised viability,MDA-MB-468 [8]; 10 nM,108%
same,normalised viability,MDA-MB-468 [8]; 1000 nM,112%
same,normalised viability,MDA-MB-468 [8]; 10000 nM,17.6%
same,normalised viability,DU-4475; 3 nM,94.6%
same,normalised viability,DU-4475; 30 nM,100%
same,normalised viability,DU-4475; 100 nM,91%
same,normalised viability,BT-474; 10 nM,127%
same,normalised viability,BT-474; 1000 nM,92.5%
same,normalised viability,BT-474; 10000 nM,58.6%
